# Molecular target: human NAMPT (Homo sapiens (Human), UniProt P43490)
# Experiment: NMN fluorescence biochemical assay (human recombinant NAMPT enzyme assay)
# How it was run: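 NMN formed was detected by fluorescence (Ex/Em 355/460 nm) after acetophenone, KOH and formic acid derivatization. The cell-free reaction ran 60 min at ambient temperature with 6 nM human NAMPT, 150 μM nicotinamide, 20 μM PRPP, 2.5 mM ATP, pH 7.2 HEPES, and compound dose responses.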
# human NAMPT, sequence (P43490 whole entry): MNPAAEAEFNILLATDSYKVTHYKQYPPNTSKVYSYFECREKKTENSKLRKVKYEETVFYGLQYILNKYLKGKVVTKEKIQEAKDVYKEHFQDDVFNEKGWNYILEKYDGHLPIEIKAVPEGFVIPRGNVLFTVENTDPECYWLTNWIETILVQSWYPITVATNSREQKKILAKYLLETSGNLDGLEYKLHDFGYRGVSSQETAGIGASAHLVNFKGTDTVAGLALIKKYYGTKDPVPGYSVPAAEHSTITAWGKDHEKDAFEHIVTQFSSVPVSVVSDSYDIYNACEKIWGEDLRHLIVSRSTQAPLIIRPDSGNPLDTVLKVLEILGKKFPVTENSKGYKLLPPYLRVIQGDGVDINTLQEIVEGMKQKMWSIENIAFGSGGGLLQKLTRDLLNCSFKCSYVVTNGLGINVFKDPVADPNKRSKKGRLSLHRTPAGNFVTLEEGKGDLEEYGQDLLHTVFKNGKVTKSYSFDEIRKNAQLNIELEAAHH
AC1.4 Human,EC50,SMILES
0.72 µM,7.32 µM,"COc1cc(C(=O)N(C)Cc2ccc(NC(=O)OCc3ccc(Cl)cc3)cc2)n(C)n1 [Compound 90, (4-chlorophenyl)methyl N-(4-{[1-(5-methoxy-2-methylpyrazol-3-yl)-N-methylformamido]methyl}phenyl)carbamate]"
0.74 µM,3.8 µM,"CN(Cc1ccc(NC(=O)OCc2ccc(Cl)cc2)cc1)C(=O)c1ccn[nH]1 [Compound 91, (4-chlorophenyl)methyl N-{4-[(N-methyl-1-2H-pyrazol-3-ylformamido)methyl]phenyl}carbamate]"
0.75 µM,3.22 µM,"COc1cnn(C)c1C(=O)N[C@@H](C)c1ccc(NC(=O)OCc2ccc(Cl)cc2)cc1 [Compound 92, (4-chlorophenyl)methyl N-{4-[(1S)-1-[(4-methoxy-2-methylpyrazol-3-yl)formamido]ethyl]phenyl}carbamate]"
0.75 µM,2.36 µM,"CC(C)Cn1nccc1C(=O)N(C)Cc1ccc(NC(=O)OCc2ccc(Cl)cc2)cc1 [Compound 94, (4-chlorophenyl)methyl N-[4-({N-methyl-1-[2-(2-methylpropyl)pyrazol-3-yl]formamido}methyl)phenyl]carbamate]"
0.75 µM,3.11 µM,"COc1cc(C(=O)N[C@@H](C)c2ccc(NC(=O)OCc3ccc(Cl)cc3)cc2)n(C)n1 [Compound 95, (4-chlorophenyl)methyl N-(4-[(1S)-1-[(5-methoxy-2-methylpyrazol-3-yl)formamido]ethyl]phenyl}carbamate]"

# Second part, the compound before the results:
SMILES,AC1.4 Human,EC50
"O=C(Nc1ccc(C2CCN(CC(F)(F)F)CC2)cc1)OCc1cnco1 [Compound 88, 1,3-oxazol-5-ylmethyl N-{4-[1-(2,2,2-trifluoroethyl)piperidin-4-yl]phenyl}]",0.69 µM,37.4 µM
"C[C@@H](c1ccc(NC(=O)OCc2ccc(Cl)cc2)cc1)N(C)C(=O)N1CCC1 [Compound 89, 4-chlorobenzyl (S)-(4-(1-(N-methylazetidine-1-carboxamido)ethyl)phenyl)carbamate]",0.71 µM,9.4 µM
"CC(=O)N1CCC(OCc2ccc(NC(=O)OCc3ccc(Cl)cc3)cc2)CC1 [Compound 93, 4-chlorobenzyl (4-(((1-acetylpiperidin-4-yl)oxy)methyl)phenyl)carbamate]",0.75 µM,6.8 µM
C[C@H](NC(=O)N1CCC1)c1ccc(NC(=O)OCc2ccc(Cl)cc2)cc1 [Compound 96],0.75 µM,3.47 µM
"C[C@H](NC(=O)C1CCC(F)(F)C1)c1ccc(NC(=O)OCc2cnco2)cc1 (stereo partly drawn) [Compound 97, 1,3-oxazol-5-ylmethyl N-{4-[(1S)-1-[(3,3-difluorocyclopentyl)formamido]ethyl]phenyl}carbamate]",0.76 µM,23.6 µM
"COC(=O)N1CCC(Cc2ccc(NC(=O)OCc3ccc(Cl)cc3)cc2)CC1 [Compound 98, methyl 4-(4-((((4-chlorobenzyl)oxy)carbonyl)amino)benzyl)piperidine-1-carboxylate]",0.78 µM,1.49 µM
"O=C(Nc1ccc(Cc2ccncc2)cc1)OCc1cn[nH]c1 [Compound 99, (1H-pyrazol-4-yl)methyl (4-(pyridin-4-ylmethyl)phenyl)carbamate]",0.79 µM,51.2 µM
"COc1ccc(C(=O)N[C@@H](C)c2ccc(NC(=O)OCc3ccc(Cl)cc3)cc2)cn1 [Compound 100, (4-chlorophenyl)methyl N-{4-[(1S)-1-[(6-methoxypyridin-3-yl)formamido]ethyl]phenyl}carbamate]",0.81 µM,1.22 µM
"CCn1nccc1C(=O)N[C@@H](C)c1ccc(NC(=O)OCc2ccc(Cl)cc2)cc1 [Compound 101, (4-chlorophenyl)methyl N-{4-[(1S)-1-[(2-ethylpyrazol-3-yl)formamido]ethyl]phenyl}carbamate]",0.82 µM,4.14 µM
